Experimental data: ChEMBL document CHEMBL1201862, “PubChem BioAssay data set” (2004)
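Where inhibition never reached the appropriate level, the endpoint shown equals the highest concentration tested. Otherwise, values were interpolated linearly from a five-concentration, 48-hour dose response in 96-well plates. GI50 is the concentration that inhibits growth by half.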 Activity calls are given as the source filed them. No stated cut-off is given here; in the data, active = GI50 up to about 1.1 µM and inactive = higher.

What was measured:
Experiment in all cases: DTP human tumour cell line panel, 48 h
SNB-75 = system: SNB-75
BT-549 = system: BT-549
K562 = system: K562
UACC-257 = system: UACC-257
NCI-H522 = system: NCI-H522
NCI-H226 = system: NCI-H226
T47D = system: T47D
LOX IMVI = system: LOX IMVI
HCC 2998 = system: HCC 2998
SNB-19 = system: SNB-19
SK-MEL-28 = system: SK-MEL-28
RPMI-8226 = system: RPMI-8226
CCRF-CEM = system: CCRF-CEM
U-251 = system: U-251
SN12C = system: SN12C
SK-OV-3 = system: SK-OV-3
HOP-92 = system: HOP-92
IGROV-1 = system: IGROV-1
786-0 = system: 786-0
Malme-3M = system: Malme-3M

Compound	GI50 (SNB-75)	GI50 (BT-549)	GI50 (K562)	GI50 (UACC-257)	GI50 (NCI-H522)	GI50 (NCI-H226)	GI50 (T47D)	GI50 (LOX IMVI)	GI50 (HCC 2998)	GI50 (SNB-19)	GI50 (SK-MEL-28)	GI50 (RPMI-8226)	GI50 (CCRF-CEM)	GI50 (U-251)	GI50 (SN12C)	GI50 (SK-OV-3)	GI50 (HOP-92)	GI50 (IGROV-1)	GI50 (786-0)	GI50 (Malme-3M)
Ic1cccc(/C=C/CN2CCN(CCOC(c3ccccc3)c3ccccc3)CC2)c1	11.5 µM (inactive)	16.8 µM (inactive)	4.62 µM (inactive)	15.7 µM (inactive)	16.1 µM (inactive)	17.1 µM (inactive)	10.6 µM (inactive)	13.2 µM (inactive)	6.97 µM (inactive)	16.3 µM (inactive)	20.8 µM (inactive)	3.01 µM (inactive)	6.5 µM (inactive)	13.6 µM (inactive)	13.9 µM (inactive)	21.6 µM (inactive)	14.4 µM (inactive)	19.7 µM (inactive)	15.7 µM (inactive)	18.9 µM (inactive)
CC1(C)OC2C(O)C(CO)OC2(C(F)F)O1 (stereo not given)	> 100 µM (inactive)	> 100 µM (inactive)	> 100 µM (inactive)	> 100 µM (inactive)	> 100 µM (inactive)	> 100 µM (inactive)	> 100 µM (inactive)	> 100 µM (inactive)	> 100 µM (inactive)	> 47.1 µM (inactive)	> 100 µM (inactive)	> 100 µM (inactive)	> 100 µM (inactive)	> 100 µM (inactive)	> 100 µM (inactive)	> 100 µM (inactive)	> 100 µM (inactive)	> 100 µM (inactive)	> 100 µM (inactive)	> 100 µM (inactive)
COC(=O)NC1C(C)OC(OC2C/C=C(/C)C3C=CC4C(OC5CC(OC6CCC(OC7CC(O)C(OC8CCC(O)C(C)O8)C(C)O7)C(C)O6)C(OC(C)=O)C(C)O5)C(C)CC(C)C4C3(C)/C(O)=C3/C(=O)OC4(CC(C=O)=CC(O)C4/C=C\2C)C3=O)CC1(C)[N+](=O)[O-] (stereo not given)	1.75 µM (inactive)	1.04 µM (active)	0.885 µM (active)	0.724 µM (active)	0.824 µM (active)	1.06 µM (active)	2.06 µM (inactive)	0.397 µM (active)	0.951 µM (active)	0.69 µM (active)	0.403 µM (active)	0.957 µM (active)	0.178 µM (active)	0.342 µM (active)	0.964 µM (active)	2.44 µM (inactive)	1.06 µM (active)	3.44 µM (inactive)	0.861 µM (active)	0.421 µM (active)
